In one test the target is T1, JNK1α1 (Homo sapiens, UniProt P45983).
T1 construct: catalytic domain containing amino acids 1-364 and N-terminal hexahistidine tag; hexahistidine (His6) (N); made in house; host or cells: E. coli BL21 (DE3)
T1 sequence (P45983 1-364): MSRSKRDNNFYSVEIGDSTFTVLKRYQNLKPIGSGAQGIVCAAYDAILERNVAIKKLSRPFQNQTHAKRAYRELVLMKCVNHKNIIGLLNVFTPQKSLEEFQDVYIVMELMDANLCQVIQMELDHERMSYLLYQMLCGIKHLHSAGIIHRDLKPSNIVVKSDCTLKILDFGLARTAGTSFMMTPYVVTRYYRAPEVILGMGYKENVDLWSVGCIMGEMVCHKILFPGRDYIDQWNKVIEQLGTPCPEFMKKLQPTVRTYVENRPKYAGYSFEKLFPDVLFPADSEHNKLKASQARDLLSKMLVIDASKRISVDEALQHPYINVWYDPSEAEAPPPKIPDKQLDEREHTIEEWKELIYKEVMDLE
Put plainly: Coupled spectrophotometric (PK/LDH) JNK1α1 assay: % inhibition and Ki determination. Type of test: biochemical. The conditions noted are these: @1 uM; read-out: % Inhibition JNK-1. As for the experimental part:
% Inhibition and Ki Determination
A coupled spectrophotometric assay, coupling JNK1α1 activity to the oxidation of β-NADH to NAD+ through the action of pyruvate kinase (PK) and lactic dehydrogenase (LDH), was used to determine the potency (percent inhibition at 1 or 10 μM or Ki) of compounds against JNK1α1 (Genbank Accession Number: L26318). […] The reaction was monitored by following the decrease in absorbance at 340 nm. The initial reaction rate was determined by the slope of the change in absorbance. To calculate percent inhibition the rate of the reaction in the presence of 1 or 10 μM compound was compared to the rate of the reaction with only DMSO multiplied by 100 percent. Note, the background rate of the above reaction in the presence of 10 μM PHA-00738186 was subtracted from all rates. […] Y=(−X+Eo−(Ki*(1+A/Km))+((X−Eo+(Ki*(1+A/Km)))^2+4*Eo*(Ki*(1+A/Km)))^0.5)*(Vm*A/(Km+A)/(2*Eo)) Formula: • Parameters: Eo, Ki, A, Km, Vo • Y is initial reaction velocity; • X is inhibitor concentration; • A is [ATP]; • Ki is inhibition constant; • Vm is Vmax; • Eo is total (initial) enzyme concentration; • Km is ATP Km;
The compounds were prepared in 100% DMSO at a 40× concentration. For percent inhibition experiments this would be 400 or 40 μM for 10 and 1 μM final concentration, respectively. For the Ki determination 3× serial dilutions were made starting at 4 mM (100 μM at 1×) in DMSO. A total of 11 concentrations were used for the analysis. The compounds were added to the reaction plate first. Next, a solution containing the HEPES, MgCl2, DTT, peptide substrate, NADH, PEP, PK/LDH enzyme, and JNK1α1—364nHis enzyme was added to the assay plate. The plate was incubated at room temperature for 15 minutes. Then the plate was warmed to 30° C. for 5 minutes. The reaction was initiated with the addition of ATP. The reaction was run in a plate reader at 30° C. for 20 minutes with absorbance readings made about every 10 seconds.
The column with “#” heading refers to compound number as exemplified in the Examples section. The column with “Ki” heading refers to Ki (in nM). The column with “% Inhibition” heading refers to percent inhibition of JNK-1 at 1 μM or 10 μM (in %) unless otherwise stated. ND refers to no data was taken.
As to `CCN1CC(CNC(=O)c2cccc3cnc(N[C@H]4CC[C@H](O)CC4)nc23)OCC1=O` (stereo partly drawn) [Example 529, N-[(4-ethyl-5-oxomorpholin-2-yl)methyl]-2-[(trans-4-hydroxycyclohexyl)amino]quinazoline-8-carboxamide], the inhibition at 1 µM was determined as 16%.

As to `CC(COc1cccc2cnc(N[C@H]3CC[C@H](O)CC3)nc12)N(C)C` (stereo partly drawn) [Example 266, trans-4-({8-[2-(dimethylamino)propoxy]quinazolin-2-yl}amino)cyclohexanol], the inhibition at 1 µM amounted to 14%. The same measure, in the same setting: the value for `O[C@H]1CC[C@H](Nc2ncc3cccc(OCCN4CCOCC4)c3n2)CC1` [Example 250, trans-4-{[8-(2-morpholin-4-ylethoxy)quinazolin-2-yl]amino}cyclohexanol] was 24%; that for `O=C1CC[C@@H](COc2ccc3cnc(N[C@H]4CC[C@H](O)CC4)nc3c2)N1` [Example 280, (5S)-5-[({2-[(trans-4-hydroxycyclohexyl)amino]quinazolin-7-yl}oxy)methyl]pyrrolidin-2-one] was 37%.

For `O=C(NC1(CO)CCCC1)c1ccc2cnc(NC3CCC3)nc2c1` [Example 422, 2-(cyctobutylamino)-N-[1-(hydroxymethyl)cyclopentyl]quinazoline-7-carboxamide], the inhibition at 1 µM was 13%. Take `O=C(NCCc1cn2ccccc2n1)c1cccc2cnc(N[C@H]3CC[C@H](O)CC3)nc12` [Example 494, 2-[(trans-4-hydroxycyclohexyl)amino]-N-(2-imidazol[1,2-a]pyridin-2-ylethyl)quinazoline-8-carboxamide]: the inhibition at 1 µM was 16%.

As for `CC(NC(=O)c1cccc2cnc(N[C@H]3CC[C@H](O)CC3)nc12)c1ccncn1` (stereo partly drawn) [Example 492, 2-[(trans-4-hydroxycyclohexyl)amino]-N-(1-pyrimidin-4-ylethyl)quinazoline-8-carboxamide], the inhibition at 1 µM is 12%. Regarding `O[C@H]1CC[C@H](Nc2ncc3ccc(O[C@H]4CCN(Cc5ccccc5)C4)cc3n2)CC1` [Example 277, trans-4-[(7-{[(3S)-1-benzylpyrrolidin-3-yl]oxy}quinazolin-2-yl)amino]cyclohexanol], the inhibition at 1 µM is 46%. Take `CO[C@H]1CCCC[C@@H]1Oc1ccc2cnc(N[C@H]3CC[C@H](O)CC3)nc2c1` [Example 291, trans-4-[(7-{[(1S,2S)-2-methoxycyclohexyl]oxy}quinazolin-2-yl)amino]cyclohexanol]: the inhibition at 1 µM is 37%. Still for that read-out and setting: the value for `CCn1ncnc1NC(=O)c1cccc2cnc(N[C@H]3CC[C@H](O)CC3)nc12` [Example 320, N-(1-ethyl-1H-1,2,4-triazol-5-yl)-2-[(trans-4-hydroxycyclohexyl)amino]quinazoline-8-carboxamide] was 19%; that for `O=C(NCCc1ccccn1)c1cccc2cnc(N[C@H]3CC[C@H](O)CC3)nc12` [Example 469, 2-[(trans-4-hydroxycyclohexyl)amino]-N-(2-pyridin-2-ylethyl)quinazoline-8-carboxamide] was 10%; that for `Cc1cccc(CNC(=O)c2cccc3cnc(N[C@H]4CC[C@H](O)CC4)nc23)n1` [Example 481, 2-[(trans-4-hydroxycyclohexyl)amino]-N-[(6-methylpyridin-2-yl)methyl]quinazoline-carboxamide] was 14%.

The test is the same for the next values; noted with them: @10 uM; read-out: % Inhibition JNK-1.
Turning to `CN1CCC(Oc2cccc3cnc(N[C@H]4CC[C@H](O)CC4)nc23)C1` (stereo partly drawn) [Example 262, trans-4-({8-[(1-methylpyrrolidin-3-yl)oxy]quinazolin-2-yl}amino)cyclohexanol], the inhibition at 10 µM worked out at 61%. Take `COc1ccc(CNc2cc3cc(-c4cn[nH]c4)ccc3cn2)cn1` [Example 231, N-[(6-methoxypyridin-3-yl)methyl]-6-(1H-pyrazol-4-yl)isoquinolin-3-amine]: the inhibition at 10 µM was found to be 43%.

Still in this test, the particulars now being: JNK-1.
Regarding `CC[C@@H](CO)NC(=O)c1ccc2cnc(NC(C)C)nc2c1` [Example 411, N-[(1S)-1-(hydroxymethyl)propyl]-2-(isopropylamino)quinazoline-7-carboxamide], the Ki worked out at 1100 nM.

Consider `O[C@H]1CC[C@H](Nc2ncc3ccc(O[C@@H]4CCOC4)cc3n2)CC1` [Example 159, trans-4-({7-[(3R)-tetrahydrofuran-3-yloxy]quinazolin-2-yl}amino)cyclohexanol], for which the affinity, expressed as Ki, was 190 nM. This Ki lies about 5.8-fold lower than the previous one. On the same count and under the same terms, the value for `O[C@H]1CC[C@H](Nc2ncc3ccc(F)cc3n2)CC1` [Example 143, trans-4-[(7-fluoroquinazolin-2-yl)amino]cyclohexanol] was 337 nM; that for `N[C@H]1CC[C@H](Nc2ncc3cccc(OC4CCOC4)c3n2)CC1` (stereo partly drawn) [Example 177, trans-N-[8-(tetrahydrofuran-3-yloxy)quinazolin-2-yl]cyclohexane-1,4-diamine] was 914 nM.

As to `O=C(NC(CO)c1ccccc1Cl)c1ccc2cnc(N[C@H]3CC[C@H](O)CC3)nc2c1` (stereo partly drawn) [Example 99, N-[1-(2-chlorophenyl)-2-hydroxyethyl]-2-[(trans-4-hydroxycyclohexyl)amino]quinazoline-7-carboxamide], the Ki was found to be 18 nM. The same measure, in the same setting: the value for `O=C(NC1CCS(=O)(=O)C1)c1ccc2cnc(N[C@H]3CC[C@H](O)CC3)nc2c1` (stereo partly drawn) [Example 60, N-(1,1-dioxidotetrahydro-3-thienyl)-2-[(trans-4-hydroxycyclohexyl)amino]quinazoline-7-carboxamide] was 157 nM; that for `CC[C@@H](CO)NC(=O)c1ccc2cnc(NC3CCCCC3)nc2c1` [Example 388, 2-(cyctohexylamino)-N-[(1S)-1-(hydroxymethyl)propyl]quinazoline-7-carboxamide] was 303 nM. Turning to `CC(C)(O)CNC(=O)c1cccc2cnc(N[C@H]3CC[C@H](NS(C)(=O)=O)CC3)nc12` [Example 130, N-(2-hydroxy-2-methylpropyl)-2-({trans-4-[(methylsulfonyl)amino]cyclohexyl}amino)quinazoline-8-carboxamide], the inhibition constant Ki amounted to 141 nM. Same read-out and setting: the value for `O=C(N[C@H]1CC[C@H](CO)CC1)c1cccc2cnc(N[C@H]3CC[C@H](O)CC3)nc12` [Example 457, 2-[(trans-4-hydroxycyclohexyl)amino]-N-[trans-4-(hydroxymethyl)cyclohexyl]quinazoline-8-carboxamide] was 275 nM; that for `FCCN[C@H]1CC[C@H](Nc2ncc3cccc(OC4CCOC4)c3n2)CC1` (stereo partly drawn) [Example 194, trans-N-(2-fluoroethyl)-N′-[8-(tetrahydrofuran-3-yloxy)quinazolin-2-yl]cyclohexane-1,4-diamine] was 1460 nM; that for `O=C(CC1CCS(=O)(=O)C1)Nc1cc2cc(-c3cn[nH]c3)ccc2cn1` (centres unmarked) [Example 13, 2-(1,1-dioxidotetrahydro-3-thienyl)-N-[6-(1H-pyrazol-4-yl)isoquinolin-3-yl]acetamide] was 36 nM.

In turn, `C[C@@H](O)CNC(=O)c1cccc2cnc(N[C@H]3CC[C@H](O)CC3)nc12` [Example 120, 2-[(trans-4-hydroxycyclohexyl)amino]-N-[(2R)-2-hydroxypropyl]quinazoline-8-carboxamide] came in with a Ki of 147 nM. The molecule `Cc1cnc(C(=O)NCC(=O)Nc2cc3cc(-c4cn[nH]c4)ccc3cn2)cn1` [Example 43, 5-methyl-N-(2-oxo-2-{[6-(1H-pyrazol-4-yl)isoquinolin-3-yl]amino}ethyl)pyrazine-2-carboxamide] showed a Ki of 8 nM. This Ki is about 18-fold lower than that of the molecule before. The same measure, in the same setting: the value for `CC(C)C[C@@H](CO)NC(=O)c1ccc2cnc(NC3CCC3)nc2c1` [Example 397, 2-(cyclobutylamino)-N-[(1S)-1-(hydroxymethyl)-3-methylbutyl]quinazoline-7-carboxamide] was 428 nM; that for `c1cc2cnc(NC3CCOCC3)cc2cc1-c1cn[nH]c1` [Example 218, 6-(1H-pyrazol-4-yl)-N-(tetrahydro-2H-pyran-4-yl)isoquinolin-3-amine] was 843 nM; that for `CN1CCC(COc2ccc3cnc(N[C@H]4CC[C@H](O)CC4)nc3c2)CC1` [Example 156, trans-4-({7-[(1-methylpiperidin-4-yl)methoxy]quinazolin-2-yl}amino)cyclohexanol] was 988 nM. Still for that read-out and setting: the value for `CC[C@H](C)[C@@H](CO)NC(=O)c1ccc2cnc(NC3CCCC3)nc2c1` [Example 396] was 424 nM; that for `CC(=O)N[C@H]1CC[C@H](Nc2ncc3cccc(C(=O)NCC(C)(C)O)c3n2)CC1` [Example 135, 2-{[trans-4-(acetylamino)cyclohexyl]amino}-N-(2-hydroxy-2-methylpropyl)quinazoline-8-carboxamide] was 300 nM.

These data come from patent US7998978B2 (Pfizer Inc., priority 2006, dated 2011).
